{"source": "patent US10137171B2", "about": "“Methods of treatment using a pentapeptide derived from the C-Terminus of Glucagon-Like Peptide 1 (GLP-1)” (The General Hospital Corporation, priority 2011, dated 2018)", "type_in_all_cases": "in vivo, mouse", "key": {"diet-induced obese mice [1]": {"tested_on": "diet-induced obese mice", "assay": "Continuous osmopump infusion in very high-fat diet-induced obese mice: body weight, energy intake, Feed Efficiency", "procedure": "The data encompass twelve weeks, from week 2 to week 14 of continuous infusions of control vehicle and GLP-1(32-36)amide. GLP-1(32-36)amide was administered to mice via mini-osmopumps (Alzet #1004) at a rate of 40 nanomoles/Kg body weight/24 hours. Male C57bl/6j mice were placed on a high fat diet (Research Diets, #D12492, 60 kcal % fat) at six weeks of age and continued for 17 weeks before starting osmopump infusions at age 23 weeks. 1A. Line graph showing time-dependent changes in body weight (BW) over fourteen weeks of infusions of control vehicle and pentapeptide GLP-1(32-36)amide. (*) p<0.05 versus vehicle control; (**) p<0.04 versus vehicle control; (***) p<0.034; (#) p<0.01; (##) p<0.004; (###) p<0.0006, 0.0007; (####) p<0.0001. 1B. N=six mice per group. Values are means+/−SEMs. *p<0.013 peptide vs. vehicle. At week two of infusions of vehicle and pentapeptide the mice weighed 37.2 and 38.2 gms (averages of six mice), respectively. N=six mice per group.\nFIG. 3 is a bar graph showing feed efficiency at the end of 12 week infusion. GLP-1(32-36)amide infusions in diet-induced obese mice lowers the Feed Efficiency index. The data are the means+/−SEMs (*p<0.06 pentapeptide vs. vehicle) of the values calculated from the […] period of infusions of control vehicle and GLP-1(32-36)amide shown in FIG. 4. The Feed efficiency (FE) is a calculation of the body weight (gms) divided by the energy intake kcal) in the food consumed. […] Basal energy expenditure in mice treated with pentapeptide is increased compared to mice treated with control vehicle. N=6 mice per group.\nMale C57bl/6 mice at […] were placed on a very high-fat diet (VHFD, 60% fat, Research Diets) for 17 weeks. At week 17 the mice on the high-fat diet, corresponding to 23 weeks of age, mini-osmopumps containing either vehicle or GLP-1(32-36)amide were implanted subcutaneously for delivery of peptide or vehicle over 16 weeks. Forty nanomoles (20 micrograms) of GLP-1(32-36) was diluted in saline containing 0.1% human serum albumin and were infused at a rate of forty nanomoles/kgBW/day for 16 weeks to achieve an estimated concentration of approximately 100 pM similar to that reported by infusions of GLP-1(7-36)amide. For infusions longer than 4 weeks additional osmopumps with peptide were implanted at the end of each 4 weeks infusion. Body weights were recorded weekly. Food consumption was assessed every 3 to 4 days by weight. Energy intake (kcal/gm BW/week) and Feed Efficiency Index (FEI) were evaluated during the infusions of vehicle or peptide. The latter provides a measure of the efficiency of caloric conversion to body weight and it is calculated by determining the grams of body weight gain per cage/Kcal of food consumed per cage, [21]. There was no observable change in the activities of the mice amongst the various experimental groups. Mouse care was conducted under approval by the MGH Institutional Animal Care Use Committee."}, "diet-induced obese mice [2]": {"tested_on": "diet-induced obese mice", "assay": "Metabolic parameters in closed metabolic chambers (TSE PhenoMaster/LabMaster)", "excerpt": "FIGS. 4A-C show the results of metabolic measurements of body weights, energy expenditure (VO2), and physical activities of mice during three days of monitoring in TSE-Systems metabolic cages. Mice were 37 weeks old and fed the very high fat diet for 31 weeks at the time of the study. 4A. Line graph showing body weights during three-day monitoring. Vehicle N=2; GLP-1s N=3. # p<0.01; ## p<0.006; ## p<0.008; ## p<0.007. 4B. Bar graph and line graph showing total body oxygen consumption (VO2) measured during both light and dark cycles for the three days of monitoring. Upper panel; Total VO2. Lower panel: Daily time-course of VO2 during light and dark cycles averaged over the three days. Vehicle N=2; GLP-1s N=3. 4C. Bar graph and line graph showing physical activity of the mice during the three days of the metabolic studies. Upper panel: Total activities averaged for light and dark cycles. Lower panel: Time-dependent measurements of activities. Activities were measured for hourly intervals during the light cycle of six hours (13:00 to 18:00) and for two hour intervals during the dark cycle of 12 hours (18:00 to 6:00). […] Vehicle N=2; GLP-1s N=3. The findings support a model of increased basal energy expenditure in mice infused with GLP-1(32-36)amide versus mice infused with control vehicle, independent of endogenous energy expenditure due to physical activity. N=3 mice for pentapeptide infusion and N=2 mice for control vehicle infusion.\nFIGS. 4D-G show the results of metabolic measurements of energy expenditure (VO2) of monitoring in TSE-Systems metabolic cages. Mice were 33-34 weeks old and fed the very high fat diet for […] at the time of the study. 4D and 4E. Line graph and bar graph showing total body oxygen consumption (VO2) measured during the light phase during two days. 4F and 4G. Line graph and bar graph showing lean body oxygen consumption (VO2) measured during the light phase during two days.\nMice were single-caged for three days acclimatization and then transferred to single-cage metabolic chambers in a PhenoMaster/LabMaster system (TSE-Systems, Inc., Chesterfield, Mo.) for measurements of oxygen consumption, CO2, physical activity, and food intake during light and dark cycles for a period of 72 hrs."}, "diet-induced obese mice [3]": {"tested_on": "diet-induced obese mice", "assay": "Plasma circulating glycerol and triglyceride (FIG. 6C)", "settings": "16 weeks continuous infusion, 60% fat diet 24 weeks (FIG. 6C)", "excerpt": "FIG. 6C is a table showing continuous infusion of GLP-1(32-36)amide for 16-weeks improves plasma circulating levels of glycerol and triglyceride in mice fed on a 60% fat diet (VHFD) for 24-weeks. *p<0.02, peptide vs. vehicle; **p<0.008 peptide vs. vehicle."}}, "note": "Entries after “also recorded” stand apart in the source; their conditions may differ. Where no end group is shown, it is not given here."}
{"substance": "LVKGRamide (LVKGR-NH2) [GLP-1(32-36)amide, pentapeptide derived from the C-terminus of the glucoincretin hormone GLP-1]", "values": [{"measurement": "average weekly change in body weight gain, less than control vehicle", "setting": "diet-induced obese mice [1]; VHFD mice, 40 nanomoles/kg BW/day s.c. osmopump, measured over ten weeks (FIG. 1B)", "result": 50, "unit": "%"}, {"measurement": "body weight at week two of infusions", "setting": "diet-induced obese mice [1]; VHFD mice, average of six mice, vehicle 37.2", "result": 38.2, "unit": "gms"}, {"measurement": "time at which inhibition of weight gain reached statistical significance", "setting": "diet-induced obese mice [1]; VHFD mice, continuous infusion 40 nanomoles/kg BW/day (FIG. 1A)", "result": "by week five; also recorded: as early as five weeks"}, {"measurement": "energy intake (food intake)", "setting": "diet-induced obese mice [1]; VHFD mice, ten weeks of infusion, vehicle 1.11±0.025", "result": "1.15±0.030", "unit": "Kcal/g body weight/week"}, {"measurement": "Feed Efficiency decrease compared to vehicle", "setting": "diet-induced obese mice [1]; VHFD obese mice (FIG. 3)", "result": "approximately 50%"}, {"measurement": "Feed Efficiency index (effect in words)", "setting": "diet-induced obese mice [1]; end of 12 week infusion, p<0.06 vs vehicle (FIG. 3)", "result": "lowers"}, {"measurement": "body weights decreased compared to vehicle control", "setting": "diet-induced obese mice [1]; end of the sixteen week infusion, high fat diet-induced obese mice", "result": 50, "unit": "%"}, {"measurement": "body weight during three-day metabolic chamber monitoring", "setting": "diet-induced obese mice [2]; VHFD 31 weeks, infusion twelve weeks, vehicle 52 (FIG. 4A)", "result": 38, "unit": "grams"}, {"measurement": "cumulative food consumption vs vehicle", "setting": "diet-induced obese mice [2]; indirect calorimetric studies", "result": "lower"}, {"measurement": "physical activity vs vehicle", "setting": "diet-induced obese mice [2]; light and dark cycles (FIG. 4C)", "result": "not significantly different; also recorded: not associated with changes; also recorded: no significant differences"}, {"measurement": "whole body oxygen consumption (Total VO2) vs vehicle", "setting": "diet-induced obese mice [2]; light cycle and dark cycle (FIG. 4B)", "result": "significantly higher"}, {"measurement": "resting oxygen consumption vs vehicle", "setting": "diet-induced obese mice [2]; light cycle and dark cycle (FIG. 4D, 4E)", "result": "increase"}, {"measurement": "plasma circulating levels of glycerol and triglyceride", "setting": "diet-induced obese mice [3]", "result": "improves; also recorded: lowered"}]}
